Paper PMC10705530, “Lactate Dehydrogenase Gene Family in Spirometra mansoni (Cestoda: Diphyllobothriidea)—Phylogenetic Patterns and Molecular Characteristics” (Animals : an Open Access Journal from MDPI, 2023)

How the values were obtained:
[1] = biological target: T1, rSmLDH (SmLDH1, lactate dehydrogenase) (Spirometra erinaceieuropaei, UniProt E3SW74); test: LDH activity at […] nm, Lineweaver-Burk Ki (lactate oxidation; reduction Ki […], IC50 […]); format: biochemical
T1 construct: gene LDH; recombinant SmLDH1 (GenBank ADK62519.1, 338 aa), pQE-80L, E. coli BL21
T1 sequence (E3SW74 1-338): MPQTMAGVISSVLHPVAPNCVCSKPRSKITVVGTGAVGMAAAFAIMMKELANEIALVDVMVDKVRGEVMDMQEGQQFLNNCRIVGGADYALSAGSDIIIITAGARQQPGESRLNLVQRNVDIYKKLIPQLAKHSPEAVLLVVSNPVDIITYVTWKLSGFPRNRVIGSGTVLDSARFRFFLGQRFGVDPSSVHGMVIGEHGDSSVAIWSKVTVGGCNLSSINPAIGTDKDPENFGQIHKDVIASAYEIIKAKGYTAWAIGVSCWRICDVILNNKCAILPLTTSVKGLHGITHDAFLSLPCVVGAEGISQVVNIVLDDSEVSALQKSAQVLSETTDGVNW

[2] = biological target: T1, rSmLDH (SmLDH1, lactate dehydrogenase); test: LDH activity at […] nm, Lineweaver-Burk Ki (pyruvate reduction; oxidation Ki […]); format: biochemical
[3] = biological target: T1, rSmLDH (SmLDH1, lactate dehydrogenase); test: LDH activity at […] nm, Lineweaver-Burk Ki (lactate oxidation; reduction Ki […]); format: biochemical
[4] = biological target: T1, rSmLDH (SmLDH1, lactate dehydrogenase); test: as above; format: biochemical; remark: listed apart in the source
[5] = substrate: CC(=O)C(=O)O; test: enzyme kinetics, Km by Lineweaver-Burk plot; format: biochemical, Spirometra erinaceieuropaei; settings: NADH key catalytic sites […] R, […] D and […] H (model)
[6] = substrate: CC(O)C(=O)O; test: enzyme kinetics, Km by Lineweaver-Burk plot; format: biochemical, Spirometra erinaceieuropaei; settings: NAD+
[7] = substrate: NC(=O)C1=CN([C@@H]2O[C@H](COP(=O)(O)OP(=O)(O)OC[C@H]3O[C@@H](n4cnc5c(N)ncnc54)[C@H](O)[C@@H]3O)[C@@H](O)[C@H]2O)C=CC1; test: enzyme kinetics, Km by Lineweaver-Burk plot; format: biochemical, Spirometra erinaceieuropaei; settings: varied: cofactor
[8] = substrate: NC(=O)c1ccc[n+]([C@@H]2O[C@H](COP(=O)([O-])OP(=O)(O)OC[C@H]3O[C@@H](n4cnc5c(N)ncnc54)[C@H](O)[C@@H]3O)[C@@H](O)[C@H]2O)c1; test: enzyme kinetics, Km by Lineweaver-Burk plot; format: biochemical, Spirometra erinaceieuropaei; settings: varied: cofactor

Molecule: Cc1cc2c(C(C)C)c(O)c(O)c(C=O)c2c(O)c1-c1c(C)cc2c(C(C)C)c(O)c(O)c(C=O)c2c1O [Gsp, Gossypol]
- Ki [1]: 41.7 µM

Molecule: NC(=S)c1cccnc1 [Thio, Thionicotinamide]
- Ki [2]: 89.4 µM

Molecule: O=C(O)C(=O)O [Oxalate]
- Ki [3]: 47.1 µM

Molecule: O=C(O)c1cccnc1 [Niacin, Nicotinic Acid]
- Ki [4]: 2090 µM

B1: rSmLDH (SmLDH1, lactate dehydrogenase) (Spirometra erinaceieuropaei) (protein)
chain: MPQTMAGVISSVLHPVAPNCVCSKPRSKITVVGTGAVGMAAAFAIMMKELANEIALVDVMVDKVRGEVMDMQEGQQFLNNCRIVGGADYALSAGSDIIIITAGARQQPGESRLNLVQRNVDIYKKLIPQLAKHSPEAVLLVVSNPVDIITYVTWKLSGFPRNRVIGSGTVLDSARFRFFLGQRFGVDPSSVHGMVIGEHGDSSVAIWSKVTVGGCNLSSINPAIGTDKDPENFGQIHKDVIASAYEIIKAKGYTAWAIGVSCWRICDVILNNKCAILPLTTSVKGLHGITHDAFLSLPCVVGAEGISQVVNIVLDDSEVSALQKSAQVLSETTDGVNW
notes: recombinant SmLDH1 (GenBank ADK62519.1, 338 aa), pQE-80L, E. coli BL21
- Km [5]: 4430 µM
- Km [6]: 75190 µM
- Km [7]: 490 µM
- Km [8]: 480 µM
